Test results published in US8569509B2, “Thiazole-4-carboxylic acid esters and thioesters as plant protection agents” (priority 2008, dated 2013).

test system: not listed separately; experiment: log P determination (HPLC, calibration with unbranched alkan-2-ones); type: physicochemical; settings: * LC-MS determination in the acidic range at pH 2.7, mobile phases 0.1% aqueous formic acid and acetonitrile (0.1% formic acid), linear gradient 10% to 95% acetonitrile; reversed-phase C 18 HPLC
Description: The calibration is carried out using unbranched alkan-2-ones (having 3 to 16 carbon atoms) with known log P values (determination of the log P values by the retention times using linear interpolation between two successive alkanones). The lambda-maX values were determined in the maxima of the chromatographic signals using the UV spectra from 200 nm to 400 nm.

Row | Structure (SMILES) | log p
1 | Cc1cc(C(F)(F)F)nn1CC(=O)N1CCC(c2nc(C(=O)OCc3ccc(OC(F)(F)F)cc3)cs2)CC1 [compound 819] | 3.99*
2 | Cc1cc(C(F)(F)F)nn1CC(=O)N1CCC(c2nc(C(=O)Oc3ccccc3-c3ccccc3)cs2)CC1 [compound 821] | 3.96*
3 | Cc1cc(C(F)(F)F)nn1CC(=O)N1CCC(c2nc(C(=O)Oc3cccc(Oc4ccccc4)c3)cs2)CC1 [compound 824] | 4.18*
4 | Cc1cc(C(F)(F)F)nn1CC(=O)N1CCC(c2nc(C(=O)Oc3ccc(Oc4ccccc4)cc3)cs2)CC1 [compound 825] | 4.14*
5 | C#CC1(OC(=O)c2csc(C3CCN(C(=O)Cn4nc(C(F)(F)F)cc4C)CC3)n2)CCCCC1 [compound 826] | 3.76*
6 | Cc1cc(C(F)(F)F)nn1CC(=O)N1CCC(c2nc(C(=O)OC3(C#N)CCCCC3)cs2)CC1 [compound 827] | 3.33*
7 | Cc1cc(C(F)(F)F)nn1CC(=O)N1CCC(c2nc(C(=O)OC3CCC(C(C)(C)C)CC3)cs2)CC1 (centres unmarked) [compound 828] | 5.19*
8 | Cc1cc(C(F)(F)F)nn1CC(=O)N1CCC(c2nc(C(=O)OC3CC(C)CCC3C(C)C)cs2)CC1 (centres unmarked) [compound 829] | 5.22*
9 | Cc1cc(C(F)(F)F)nn1CC(=O)N1CCC(c2nc(C(=O)OC3CCC4(CC3)OCCO4)cs2)CC1 [compound 830] | 2.90*
10 | Cc1cc(C(F)(F)F)nn1CC(=O)N1CCC(c2nc(C(=O)OC3C(C)CCCC3C)cs2)CC1 (centres unmarked) [compound 831] | 4.40*
11 | Cc1cc(C(F)(F)F)nn1CC(=O)N1CCC(c2nc(C(=O)OC3CCCCC3C)cs2)CC1 (centres unmarked) [compound 832] | 4.12*
12 | CCCCCCCCOC(=O)c1csc(C2CCN(C(=O)Cn3nc(C(F)(F)F)cc3C)CC2)n1 [compound 833] | 5.02*
13 | COc1ccc(COC(=O)c2csc(C3CCN(C(=O)Cn4nc(C(F)(F)F)cc4C)CC3)n2)c(OC)c1 [compound 834] | 3.33*
14 | Cc1cc(C(F)(F)F)nn1CC(=O)N1CCC(c2nc(C(=O)OCc3c(F)cc(F)cc3F)cs2)CC1 [compound 835] | 3.53*
15 | Cc1cc(C(F)(F)F)nn1CC(=O)N1CCC(c2nc(C(=O)OCc3ccccc3C(F)(F)F)cs2)CC1 [compound 836] | 3.84*
16 | Cc1cc(C(F)(F)F)nn1CC(=O)N1CCC(c2nc(C(=O)OCc3ccccc3OC(F)(F)F)cs2)CC1 [compound 837] | 3.95*
17 | CC(C)(C)c1cc(C(F)(F)F)n(CC(=O)N2CCC(c3nc(C(=O)OCC4CCCCC4)cs3)CC2)n1 [compound 847] | 4.75*
18 | CC(C)(C)c1cc(C(F)(F)F)nn1CC(=O)N1CCC(c2nc(C(=O)OCC3CCCCC3)cs2)CC1 [compound 848] | 4.51*
19 | CC(C)(C)c1cc(C(F)(F)C(F)(F)F)n(CC(=O)N2CCC(c3nc(C(=O)OCC4CCCCC4)cs3)CC2)n1 [compound 849] | 5.08*
20 | CC(C)(C)c1cc(C(F)(F)C(F)(F)F)nn1CC(=O)N1CCC(c2nc(C(=O)OCC3CCCCC3)cs2)CC1 [compound 850] | 4.94*
21 | CC(C)c1cc(C(F)(F)F)n(CC(=O)N2CCC(c3nc(C(=O)OCC4CCCCC4)cs3)CC2)n1 [compound 851] | 4.35*
22 | CCc1cc(C(F)(F)F)n(CC(=O)N2CCC(c3nc(C(=O)OCC4CCCCC4)cs3)CC2)n1 [compound 852] | 3.99*
23 | Cc1cc(C(F)(F)F)nn1CC(=O)N1CCC(c2nc(C(=O)O[C@H]3CCCc4ccccc43)cs2)CC1 [compound 853] | 4.06*

same assay, conditions: pH 2.7; read-out: log P (pH 2.7)

Row | Structure (SMILES) | chromatographic logP
24 | Cc1cc(C(F)(F)F)nn1CC(=O)N1CCC(c2nc(C(=O)OCc3ccccc3Br)cs2)CC1 [compound 820, 2-Bromobenzyl 2-(1-{[5-methyl-3-(trifluoromethyl)-1H-pyrazol-1-yl]acetyl}piperidin-4-yl)-1,3-thiazole-4-carboxylate] | 3.8
25 | O=C(OC1CCCCC1)c1csc(C2CCN(C(=S)Cn3nc(C(F)F)cc3C(F)F)CC2)n1 [compound 854, Cyclohexyl 2-(1-{2-[3,5-bis(difluoromethyl)-1H-pyrazol-1-yl]ethanethioyl}piperidin-4-yl)-1,3-thiazole-4-carboxylate] | 4.23

same assay, conditions: reversed-phase (C18) HPLC column; * LC-MS determination in the acidic range, pH 2.7, 0.1% aqueous formic acid and acetonitrile, linear gradient 10% to 95% acetonitrile; read-out: log p

Row | Structure (SMILES) | chromatographic logP
26 | Cc1cc(C(F)(F)F)nn1CC(=O)N1CCC(c2nc(C(=O)OCc3ccccc3Cl)cs2)CC1 [Ex. 23] | 3.7

same assay, conditions: reversed-phase (C18) HPLC column; ** determination in the acidic range, pH 2.3, 0.1% aqueous phosphoric acid and acetonitrile, linear gradient 10% to 95% acetonitrile; read-out: log p

Row | Structure (SMILES) | chromatographic logP
27 | Cc1cc(C(F)(F)F)nn1CC(=O)N1CCC(c2nc(C(=O)OC3CCCc4ccccc43)cs2)CC1 (centres unmarked) [Ex. 6] | 4.01

same assay, conditions: reversed-phase C18 HPLC column; * LC-MS determination in the acidic range at pH 2.7, mobile phases 0.1% aqueous formic acid and acetonitrile (0.1% formic acid), linear gradient 10% to 95% acetonitrile; reversed-phase C 18 HPLC; read-out: log p

Row | Structure (SMILES) | chromatographic logP
28 | Cc1cc(C(F)(F)F)nn1CC(=O)N1CCC(c2nc(C(=O)OCc3ccccc3Br)cs2)CC1 [compound 820, 2-Bromobenzyl 2-(1-{[5-methyl-3-(trifluoromethyl)-1H-pyrazol-1-yl]acetyl}piperidin-4-yl)-1,3-thiazole-4-carboxylate] | 3.8
29 | O=C(OC1CCCCC1)c1csc(C2CCN(C(=S)Cn3nc(C(F)F)cc3C(F)F)CC2)n1 [compound 854, Cyclohexyl 2-(1-{2-[3,5-bis(difluoromethyl)-1H-pyrazol-1-yl]ethanethioyl}piperidin-4-yl)-1,3-thiazole-4-carboxylate] | 4.23

test system: Phytophthora infestans; experiment: not given; type: in vivo; settings: tomato plants, protective, application rate 10 ppm, evaluation 3 days after inoculation

Row | Structure (SMILES) | Efficacy in %
30 | Cc1cc(C(F)(F)F)nn1CC(=O)N1CCC(c2nc(C(=O)OCc3ccccc3Cl)cs2)CC1 [Ex. 23] | 94%
31 | Cc1cc(C(F)(F)F)nn1CC(=O)N1CCC(c2nc(C(=O)NCc3ccccc3Cl)cs2)CC1 [reference compound] | 65%

test system: Plasmopara viticola; experiment: Plasmopara test (grapevine)/protective; type: in vivo; settings: grapevine plants, protective, application rate 1 ppm, evaluation 6 days after inoculation
Description: Plasmopara Test (Grapevine)/Protective
After the spray coating has dried on, the plants are inoculated with an aqueous spore suspension of Plasmopara viticola and then remain in an incubation cabin at about 20° C. and 100% relative atmospheric humidity for 1 day. The plants are then placed in a greenhouse at about 21° C. and about 90% atmospheric humidity for 4 days. The plants are then moistened and placed in an incubation cabin for 1 day.
Evaluation is carried out 6 days after the inoculation.

Row | Structure (SMILES) | Efficacy in %
32 | Cc1cc(C(F)(F)F)nn1CC(=O)N1CCC(c2nc(C(=O)OC3CCCc4ccccc43)cs2)CC1 (centres unmarked) [Ex. 6] | 91%
33 | Cc1cc(C(F)(F)F)nn1CC(=O)N1CCC(c2nc(C(=O)N(C)C3CCCc4ccccc43)cs2)CC1 (centres unmarked) [drawing 26, reference compound] | 72%

test system: Plasmopara viticola; experiment: Plasmopara test (grapevine)/curative; type: in vivo; settings: grapevine plants, curative, application rate 100 ppm, evaluation 6 days after inoculation

Row | Structure (SMILES) | Efficacy in %
34 | Cc1cc(C(F)(F)F)nn1CC(=O)N1CCC(c2nc(C(=O)OC3CCCc4ccccc43)cs2)CC1 (centres unmarked) [Ex. 6] | 84%
35 | Cc1cc(C(F)(F)F)nn1CC(=O)N1CCC(c2nc(C(=O)N(C)C3CCCc4ccccc43)cs2)CC1 (centres unmarked) [drawing 28, reference compound] | 37%
